The target in one test is Genome polyprotein (dengue virus type 2, UniProt P29990). The test is described as follows: flavivirus cap methylation enzyme inhibition – biochemical, confirmation dose response, primary screen (AID 588689). The class given is functional.
In another test the test system is Streptococcus. The test is described as follows: GAS UMAA2166 growth inhibition – luminescence, BacTiterGlo, counter-screen for streptokinase expression inhibitor project, dose response (AID 1915).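 Also: potency for reduction of bacterial viability or growth.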 Format: functional, organism-based. Background: The purpose of a counterscreen is to sort out artefacts and off-target activity.
Test [1] concerns Streptococcus sp. 'group A'. The test is described as follows: Streptococcus pyogenes SK(-)GAS viability under kanamycin – luminescence, BacTiterGlo, confirmation, counter-screen for streptokinase expression inhibitor project, dose response (AID 1900). Format: functional, organism-based.
The target of test [2] is DNA (cytosine-5)-methyltransferase 1 (Homo sapiens, UniProt P26358). Kind of test: inhibition of DNA methylation by DNMT1 – biochemical, fluorescent molecular beacon, confirmation (AID 602386). Format: functional.
A further test has as its target T1, Streptokinase A (Streptococcus pyogenes serotype M1, UniProt P10520).
T1 sequence (P10520 whole entry): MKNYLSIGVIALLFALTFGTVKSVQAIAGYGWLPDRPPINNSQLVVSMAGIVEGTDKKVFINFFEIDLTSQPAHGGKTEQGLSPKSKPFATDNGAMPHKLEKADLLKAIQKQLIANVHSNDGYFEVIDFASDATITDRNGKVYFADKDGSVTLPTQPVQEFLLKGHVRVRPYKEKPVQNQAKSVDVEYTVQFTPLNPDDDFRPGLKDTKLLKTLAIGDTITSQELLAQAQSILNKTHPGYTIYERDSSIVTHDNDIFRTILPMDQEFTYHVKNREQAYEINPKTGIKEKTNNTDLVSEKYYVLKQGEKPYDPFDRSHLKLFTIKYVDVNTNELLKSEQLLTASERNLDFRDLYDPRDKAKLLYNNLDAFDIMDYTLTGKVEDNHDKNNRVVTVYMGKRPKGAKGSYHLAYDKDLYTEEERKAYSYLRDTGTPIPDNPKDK
Kind of test: viability-normalized secreted streptokinase activity reduction – plasminogen activation absorbance, OD405, dose response (AID 1914).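 Also: secreted streptokinase activity via plasminogen activation per viability signal from cell pellet.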 Format: functional, Streptococcus pyogenes M1 GAS.

Test [3] in a line: DRD fibroblast viability loss – cell-based, non-viral oncogenic, luminescence, dose response (AID 1934). The class given is functional. Conditions: Homo sapiens.
Test [4] in a line: NIH3T3 cell viability loss – ATP luminescence, mouse fibroblasts, counter-screen, dose response (AID 2010).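 Also: cells exposed to compound for about 90 hours before reading.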 Format: functional, cell-based.
For test [5], the system named is BJ. The test is described as follows: BJ-TERT fibroblast viability loss – cell-based, RAS-independent, luminescence, dose response (AID 1933). Format: functional. Conditions: Homo sapiens.
Test [6] deals with BJ. Kind of test: BJ-TERT-LT-ST fibroblast viability loss – cell-based, RAS-independent, luminescence, dose response (AID 1935).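 Also: BJ fibroblasts immortalized with TERT plus LT and ST oncogenes.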 The class given is functional. Particulars: Homo sapiens.
In a further test the test system is INS1. The test is described as follows: INS-1E survival protection against cytokine death – cell-based, luminescence, retest, dose response (AID 449756).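 Also: cell death triggered by IL-1 beta plus TNF-alpha plus IFN-gamma mixture; protective hits raise ATP signal compared with cytokine alone wells.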 Format: functional. Conditions: Rattus norvegicus.
The test system of test [7] is BJ. The test is described as follows: cells. Particulars: Homo sapiens. Format: functional, cell-based.
Test [8] can be described thus: HEK-293T viability loss after treatment – luminescence, T-cell screen hits, cytotoxicity control for TCR NF-kB inhibitor project, dose response (AID 489026).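 Also: cells exposed to compound about 14 hours before the viability readout.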 The class given is functional, cell-based.
A short description of test [9]: Trypanosoma cruzi growth suppression in host cells – NIH3T3 host cells, beta-gal luminescence, confirmation (AID 2044).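 Also: intracellular parasites grown in NIH/3T3 mouse fibroblasts as host cells; luminescent beta-galactosidase reporter signal from transgenic T. cruzi replicating inside host cells; inhibitors lower the luminescence signal.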 Format: functional, cell-based.
A further test has as its target Nonstructural protein 1 (Influenza A virus, UniProt Q194T2). The class given is functional, Influenza A virus (A/California/07/2009(H1N1)).
Test [10] is described as follows: Luminescence-based dose response cell-based high throughput screening assay for cytotoxic compounds using the IEC-6 intestinal epithelial cell line. [Related pubchem assays: 1858 (Summary AID.), 1825 (Counterscreen.), 1907 (Confirmation screen.)]. Format: functional.
Another test concerns the target Prothrombin (Bos taurus, UniProt P00735). The test is described as follows: thrombin protease inhibitors – biochemical, fluorescence polarization, uHTS hits, dose response (AID 602369). Format: functional. In general terms: Fluorescence polarisation rises when a labelled molecule tumbles more slowly, as on binding a larger partner.
For test [11], the target named is 72 kDa type IV collagenase (Homo sapiens, UniProt P08253). The test is described as follows: Dose Response validation of uHTS RPN11 inhibitor hits using a MMP-2 Fluorescence assay. The class given is functional.
Test [12] has as its target 26S proteasome non-ATPase regulatory subunit 14 (Homo sapiens, UniProt O00487). The test is described as follows: inhibition of proteasome subunit RPN11 – biochemical, fluorescence polarization, uHTS hits, confirmation (AID 602368). The class given is functional.
In test [13] the target is Luciferin 4-monooxygenase (Photinus pyralis, UniProt P08659). Kind of test: inhibition of purified Photinus pyralis luciferase – biochemical, luminescence, dose response (AID 1891).
Test [14] in a line: Luminescence Cell-Based Dose Confirmation HTS to Identify Inhibitors of Platelet Dense Granule Release. [Related pubchem assays: 1663 (Primary HTS), 1678 (Summary of Project)]. Format: functional.
Test [15] concerns the target T2, Apoptotic protease-activating factor 1 (Homo sapiens, UniProt O14727).
T2 sequence (O14727 whole entry): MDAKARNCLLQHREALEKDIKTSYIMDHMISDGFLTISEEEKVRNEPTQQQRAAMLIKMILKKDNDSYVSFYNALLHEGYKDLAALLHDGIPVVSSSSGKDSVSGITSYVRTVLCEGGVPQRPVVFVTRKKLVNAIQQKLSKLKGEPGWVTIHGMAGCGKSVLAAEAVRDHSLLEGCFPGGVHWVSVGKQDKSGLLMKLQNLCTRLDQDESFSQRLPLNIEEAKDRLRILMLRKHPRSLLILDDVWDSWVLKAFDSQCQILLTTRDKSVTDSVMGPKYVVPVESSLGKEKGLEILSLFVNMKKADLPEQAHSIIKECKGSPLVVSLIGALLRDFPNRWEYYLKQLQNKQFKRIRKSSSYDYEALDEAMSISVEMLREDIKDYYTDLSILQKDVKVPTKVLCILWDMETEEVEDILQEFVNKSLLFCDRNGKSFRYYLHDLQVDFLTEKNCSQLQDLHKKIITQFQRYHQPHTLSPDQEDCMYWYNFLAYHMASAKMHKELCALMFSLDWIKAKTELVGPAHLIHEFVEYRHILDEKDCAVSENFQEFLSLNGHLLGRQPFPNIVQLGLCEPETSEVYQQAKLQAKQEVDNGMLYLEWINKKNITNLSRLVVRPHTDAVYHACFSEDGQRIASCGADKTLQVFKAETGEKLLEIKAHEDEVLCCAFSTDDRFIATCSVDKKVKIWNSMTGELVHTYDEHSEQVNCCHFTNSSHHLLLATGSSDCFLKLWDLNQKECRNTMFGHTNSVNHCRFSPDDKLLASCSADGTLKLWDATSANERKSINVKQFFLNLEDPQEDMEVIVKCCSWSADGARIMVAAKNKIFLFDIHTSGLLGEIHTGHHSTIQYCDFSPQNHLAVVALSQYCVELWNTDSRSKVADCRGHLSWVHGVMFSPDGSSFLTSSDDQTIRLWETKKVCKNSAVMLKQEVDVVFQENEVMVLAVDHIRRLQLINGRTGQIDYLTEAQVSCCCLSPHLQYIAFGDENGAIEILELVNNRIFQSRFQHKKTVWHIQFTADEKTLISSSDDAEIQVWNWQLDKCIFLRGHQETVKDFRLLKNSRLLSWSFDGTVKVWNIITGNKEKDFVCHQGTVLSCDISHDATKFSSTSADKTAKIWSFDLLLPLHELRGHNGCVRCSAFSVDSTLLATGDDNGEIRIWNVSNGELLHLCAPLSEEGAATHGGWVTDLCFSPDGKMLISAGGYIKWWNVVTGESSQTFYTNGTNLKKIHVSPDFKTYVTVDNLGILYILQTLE
The class given is functional.

Test [16] has as its target T3, Zinc finger protein mex-5 (Caenorhabditis elegans, UniProt Q9XUB2).
T3 sequence (Q9XUB2 whole entry): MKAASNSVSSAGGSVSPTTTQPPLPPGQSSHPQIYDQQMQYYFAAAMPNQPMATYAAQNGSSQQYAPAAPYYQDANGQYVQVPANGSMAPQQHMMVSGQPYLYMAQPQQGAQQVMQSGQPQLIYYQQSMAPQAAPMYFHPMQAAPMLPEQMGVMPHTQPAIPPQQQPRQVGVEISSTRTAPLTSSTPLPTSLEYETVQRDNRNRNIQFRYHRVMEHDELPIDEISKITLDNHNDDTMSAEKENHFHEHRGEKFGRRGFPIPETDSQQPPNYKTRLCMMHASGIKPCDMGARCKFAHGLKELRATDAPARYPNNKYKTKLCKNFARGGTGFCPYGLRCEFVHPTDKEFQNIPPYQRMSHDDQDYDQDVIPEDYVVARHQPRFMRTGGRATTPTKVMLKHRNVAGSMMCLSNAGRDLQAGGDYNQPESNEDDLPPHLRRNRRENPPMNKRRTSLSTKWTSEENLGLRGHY
Kind of test: potency of MEX-5 RNA-binding blockers – biochemical, C. elegans, fluorescence polarization, dose response (AID 1960).

For test [17], the target named is T4, RNA-binding protein pos-1 (Caenorhabditis elegans, UniProt G5EF15).
T4 sequence (G5EF15 whole entry): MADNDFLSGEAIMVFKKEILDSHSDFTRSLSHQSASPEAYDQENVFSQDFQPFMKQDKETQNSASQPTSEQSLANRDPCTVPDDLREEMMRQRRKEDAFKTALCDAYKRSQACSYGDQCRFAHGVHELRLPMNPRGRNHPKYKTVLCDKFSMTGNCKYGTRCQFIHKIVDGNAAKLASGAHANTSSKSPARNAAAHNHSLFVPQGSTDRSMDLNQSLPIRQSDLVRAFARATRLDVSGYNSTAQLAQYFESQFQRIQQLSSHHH
Kind of test: disruptors of C. elegans POS-1 RNA interaction – biochemical, fluorescence polarization, dose response (AID 1964).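 Also: purified POS-1 fused to maltose binding protein made in E. coli; potency of compounds blocking POS-1 binding to fluorescent RNA.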

In test [18] the target is Intestinal-type alkaline phosphatase (Homo sapiens, UniProt P09923). The test is described as follows: human intestinal alkaline phosphatase activators, dose response, biochemical, luminescence, uHTS hits (AID 463120). Format: functional.
The next test addresses Large T antigen (Simian virus 40, UniProt P03070). The class given is functional, Betapolyomavirus macacae.
The target in test [19] is Glucose-6-phosphate 1-dehydrogenase (Homo sapiens, UniProt P11413). The test is described as follows: inhibition of Homo sapiens G6PD, dose series – biochemical, fluorescence, selectivity assay for P. falciparum G6PD inhibitor project, dose response (AID 504792). Format: functional.

Calls of active or inactive are those of the source.

26S proteasome non-ATPase regulatory subunit 14, sequence (O00487 whole entry): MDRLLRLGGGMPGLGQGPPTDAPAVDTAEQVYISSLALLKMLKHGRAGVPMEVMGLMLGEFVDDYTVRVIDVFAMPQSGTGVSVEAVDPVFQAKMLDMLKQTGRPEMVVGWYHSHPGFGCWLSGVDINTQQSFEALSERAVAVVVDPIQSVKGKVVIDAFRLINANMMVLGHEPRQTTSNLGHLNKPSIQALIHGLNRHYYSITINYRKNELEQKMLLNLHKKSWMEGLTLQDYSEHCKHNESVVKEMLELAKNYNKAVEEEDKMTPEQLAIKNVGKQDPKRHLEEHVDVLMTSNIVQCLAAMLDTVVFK
72 kDa type IV collagenase, sequence (P08253 whole entry): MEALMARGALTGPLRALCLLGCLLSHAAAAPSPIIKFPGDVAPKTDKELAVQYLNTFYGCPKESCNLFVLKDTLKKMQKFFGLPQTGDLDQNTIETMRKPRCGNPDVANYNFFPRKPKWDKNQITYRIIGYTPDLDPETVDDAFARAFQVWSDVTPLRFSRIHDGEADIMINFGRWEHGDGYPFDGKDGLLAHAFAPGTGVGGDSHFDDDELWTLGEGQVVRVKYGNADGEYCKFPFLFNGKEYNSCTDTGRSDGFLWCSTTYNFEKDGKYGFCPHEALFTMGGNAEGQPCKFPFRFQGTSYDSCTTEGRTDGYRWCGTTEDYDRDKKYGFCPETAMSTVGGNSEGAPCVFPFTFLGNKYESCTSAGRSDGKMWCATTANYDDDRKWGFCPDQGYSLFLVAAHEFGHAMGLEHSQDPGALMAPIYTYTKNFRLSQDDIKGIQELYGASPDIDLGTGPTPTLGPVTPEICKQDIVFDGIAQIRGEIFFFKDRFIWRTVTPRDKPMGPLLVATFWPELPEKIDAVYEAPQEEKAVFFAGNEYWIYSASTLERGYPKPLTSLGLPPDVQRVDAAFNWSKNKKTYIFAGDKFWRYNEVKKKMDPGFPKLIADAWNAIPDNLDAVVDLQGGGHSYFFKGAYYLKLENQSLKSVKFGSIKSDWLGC
DNA (cytosine-5)-methyltransferase 1, sequence (P26358 whole entry): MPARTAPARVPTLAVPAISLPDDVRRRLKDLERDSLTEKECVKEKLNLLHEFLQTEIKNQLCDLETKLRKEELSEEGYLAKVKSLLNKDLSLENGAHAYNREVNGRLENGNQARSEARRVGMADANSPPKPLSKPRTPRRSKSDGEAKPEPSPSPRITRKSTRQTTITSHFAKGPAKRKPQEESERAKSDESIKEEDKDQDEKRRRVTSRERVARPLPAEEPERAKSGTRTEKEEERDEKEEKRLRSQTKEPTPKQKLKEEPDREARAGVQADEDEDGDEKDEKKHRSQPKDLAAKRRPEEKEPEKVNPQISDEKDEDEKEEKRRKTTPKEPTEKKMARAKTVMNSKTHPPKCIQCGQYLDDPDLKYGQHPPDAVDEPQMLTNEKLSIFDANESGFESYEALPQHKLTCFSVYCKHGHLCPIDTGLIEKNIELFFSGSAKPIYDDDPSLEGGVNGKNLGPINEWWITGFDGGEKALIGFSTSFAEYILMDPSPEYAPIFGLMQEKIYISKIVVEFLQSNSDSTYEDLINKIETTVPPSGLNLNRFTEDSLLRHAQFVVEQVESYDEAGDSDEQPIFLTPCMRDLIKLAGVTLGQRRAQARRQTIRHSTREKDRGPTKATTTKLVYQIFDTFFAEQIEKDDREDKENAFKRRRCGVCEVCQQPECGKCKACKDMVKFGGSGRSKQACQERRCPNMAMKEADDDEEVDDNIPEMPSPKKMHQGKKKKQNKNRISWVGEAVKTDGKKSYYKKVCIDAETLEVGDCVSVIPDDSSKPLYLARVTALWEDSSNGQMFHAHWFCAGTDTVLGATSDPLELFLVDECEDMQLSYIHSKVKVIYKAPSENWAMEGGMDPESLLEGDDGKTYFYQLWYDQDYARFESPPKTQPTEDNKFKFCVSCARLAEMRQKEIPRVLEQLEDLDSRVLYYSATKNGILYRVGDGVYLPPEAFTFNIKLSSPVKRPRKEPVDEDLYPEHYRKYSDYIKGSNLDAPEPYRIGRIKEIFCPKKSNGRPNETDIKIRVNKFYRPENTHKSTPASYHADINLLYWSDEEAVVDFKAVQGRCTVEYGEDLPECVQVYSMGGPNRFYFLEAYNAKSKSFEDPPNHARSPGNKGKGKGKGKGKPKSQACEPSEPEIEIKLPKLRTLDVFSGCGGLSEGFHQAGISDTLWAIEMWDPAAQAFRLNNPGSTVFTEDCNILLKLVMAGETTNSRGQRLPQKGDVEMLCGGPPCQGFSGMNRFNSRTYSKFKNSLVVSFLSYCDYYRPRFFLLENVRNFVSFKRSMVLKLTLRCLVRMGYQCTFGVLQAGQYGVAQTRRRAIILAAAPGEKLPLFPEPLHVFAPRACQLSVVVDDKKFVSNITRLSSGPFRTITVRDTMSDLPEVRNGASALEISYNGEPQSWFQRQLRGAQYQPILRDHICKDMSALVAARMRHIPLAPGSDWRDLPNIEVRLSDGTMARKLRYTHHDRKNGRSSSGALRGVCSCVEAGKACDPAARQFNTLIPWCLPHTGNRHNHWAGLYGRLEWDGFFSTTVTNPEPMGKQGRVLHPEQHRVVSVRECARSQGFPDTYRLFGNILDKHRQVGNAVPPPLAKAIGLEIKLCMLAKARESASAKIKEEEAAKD
Genome polyprotein, sequence (P29990 2492-3391 limits assumed): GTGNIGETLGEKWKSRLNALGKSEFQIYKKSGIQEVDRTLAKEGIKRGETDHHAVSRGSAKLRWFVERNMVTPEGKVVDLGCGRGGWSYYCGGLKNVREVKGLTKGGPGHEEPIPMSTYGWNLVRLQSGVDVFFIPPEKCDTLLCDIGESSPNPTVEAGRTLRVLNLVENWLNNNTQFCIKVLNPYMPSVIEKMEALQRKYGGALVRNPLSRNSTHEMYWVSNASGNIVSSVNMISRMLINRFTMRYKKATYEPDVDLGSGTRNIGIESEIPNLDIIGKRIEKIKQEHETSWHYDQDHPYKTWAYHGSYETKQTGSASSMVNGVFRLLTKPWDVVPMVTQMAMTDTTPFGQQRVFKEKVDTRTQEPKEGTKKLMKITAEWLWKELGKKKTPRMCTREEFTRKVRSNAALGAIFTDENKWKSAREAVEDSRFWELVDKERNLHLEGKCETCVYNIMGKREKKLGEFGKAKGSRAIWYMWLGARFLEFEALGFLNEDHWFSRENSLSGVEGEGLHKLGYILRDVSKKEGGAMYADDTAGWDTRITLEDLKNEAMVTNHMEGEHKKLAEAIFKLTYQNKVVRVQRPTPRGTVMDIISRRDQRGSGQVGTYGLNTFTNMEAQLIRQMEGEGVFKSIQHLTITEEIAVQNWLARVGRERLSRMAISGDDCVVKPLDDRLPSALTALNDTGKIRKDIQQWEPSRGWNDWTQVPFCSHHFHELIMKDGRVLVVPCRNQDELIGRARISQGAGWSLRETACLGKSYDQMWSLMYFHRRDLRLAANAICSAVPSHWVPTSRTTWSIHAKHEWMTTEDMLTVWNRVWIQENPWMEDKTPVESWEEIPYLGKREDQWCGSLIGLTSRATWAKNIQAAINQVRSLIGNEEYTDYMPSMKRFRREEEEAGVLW
Luciferin 4-monooxygenase, sequence (P08659 whole entry): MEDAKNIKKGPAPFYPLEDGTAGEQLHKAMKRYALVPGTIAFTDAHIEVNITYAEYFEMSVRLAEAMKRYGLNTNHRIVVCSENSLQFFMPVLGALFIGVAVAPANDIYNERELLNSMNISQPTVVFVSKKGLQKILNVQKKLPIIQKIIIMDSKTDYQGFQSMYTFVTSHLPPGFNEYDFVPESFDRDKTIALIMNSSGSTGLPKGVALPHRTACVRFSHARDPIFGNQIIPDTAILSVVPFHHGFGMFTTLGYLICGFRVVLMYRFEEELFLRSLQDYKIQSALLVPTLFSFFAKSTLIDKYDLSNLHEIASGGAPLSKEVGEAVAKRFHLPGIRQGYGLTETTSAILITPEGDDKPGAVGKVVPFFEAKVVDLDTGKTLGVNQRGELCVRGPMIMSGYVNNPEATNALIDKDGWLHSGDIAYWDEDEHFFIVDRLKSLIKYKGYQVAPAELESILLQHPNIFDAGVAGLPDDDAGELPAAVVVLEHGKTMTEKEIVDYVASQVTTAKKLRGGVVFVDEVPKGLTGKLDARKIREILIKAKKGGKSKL
Glucose-6-phosphate 1-dehydrogenase, sequence (P11413 whole entry): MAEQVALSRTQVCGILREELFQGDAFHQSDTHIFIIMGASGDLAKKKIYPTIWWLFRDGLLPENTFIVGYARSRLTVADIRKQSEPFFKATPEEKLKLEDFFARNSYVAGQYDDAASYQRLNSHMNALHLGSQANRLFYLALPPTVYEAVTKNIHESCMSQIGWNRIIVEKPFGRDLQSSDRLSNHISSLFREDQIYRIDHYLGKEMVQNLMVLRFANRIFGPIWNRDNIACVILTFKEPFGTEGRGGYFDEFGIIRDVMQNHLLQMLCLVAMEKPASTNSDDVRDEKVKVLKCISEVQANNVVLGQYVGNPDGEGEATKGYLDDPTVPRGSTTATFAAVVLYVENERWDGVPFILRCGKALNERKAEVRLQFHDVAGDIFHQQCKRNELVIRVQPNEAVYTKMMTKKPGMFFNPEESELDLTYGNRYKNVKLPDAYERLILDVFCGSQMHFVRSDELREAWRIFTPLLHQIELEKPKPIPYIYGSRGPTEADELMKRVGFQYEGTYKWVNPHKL
Nonstructural protein 1, sequence (Q194T2 whole entry): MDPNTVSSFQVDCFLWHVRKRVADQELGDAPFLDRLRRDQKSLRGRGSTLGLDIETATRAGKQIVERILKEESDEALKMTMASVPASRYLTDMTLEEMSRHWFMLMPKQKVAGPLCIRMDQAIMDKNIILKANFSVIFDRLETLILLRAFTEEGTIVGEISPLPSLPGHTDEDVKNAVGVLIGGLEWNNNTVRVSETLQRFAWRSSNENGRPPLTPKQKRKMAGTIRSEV

Consider `O=C(O)CN1C(=O)/C(=C\c2cc(Br)ccc2OCc2ccccc2Cl)SC1=S`, for which the figures for the IC50 (at Genome polyprotein; in [2]) were 24.3 µM (active) and 4.7 µM (active), respectively. Moreover, the results for the EC50 (in the test on Streptococcus; in test [1]; at Streptokinase A) were 5.9 µM (active), 1.97 µM (active) and > 150 µM (not active), respectively.
Take `C/C(=N\NC(=O)c1ccc(Cl)c(Cl)c1)c1ccccn1`: the EC50 (usually the concentration needed to bring the measured effect to its halfway point) was 1.01 µM (active) in test [3]; 0.656 µM (active) in [4]; 0.38 µM (inconclusive) with BJ [5]; 0.674 µM (inconclusive) in the test with BJ [6]; 1.37 µM (active) in the test with BJ [7]; 1.84 µM (active) with Streptococcus. The EC50 in test [1] was 0.099 µM (active); in [9] it was 0.125 µM (active). The AC50 (usually the midpoint of the concentration-response curve, whichever way the signal moves) with INS1 is 0.278 µM (active). In addition, the results for the IC50 (in test [8]; at Nonstructural protein 1; in test [10]) were > 80 µM (inactive), 3.03 µM (active) and 0.563 µM (active), respectively.
In the case of `COc1ccccc1-c1cc(C(=O)Nc2cc(C)nn2-c2ccccc2)no1`, the IC50 (in general, the concentration that gives 50% inhibition) at Prothrombin was > 100 µM (inactive); in test [11], > 100 µM (inactive); in [12], 36 µM (active).
Regarding `COC(=O)c1c(-c2cccnc2)csc1NC(=O)c1ccc2c(c1)OCO2`, the IC50 at Prothrombin was 96.1 µM (active); in [11] it was > 100 µM (inactive); in [12], 37.5 µM (active). The EC50 in [13] is 0.77 µM (active); in [14] it was 8.11 µM (active).
In the case of `O=C(CNC(=O)c1ccc([N+](=O)[O-])cc1)N/N=C\c1ccc(OC(=O)c2ccccc2)cc1`, the IC50 in test [2] is > 99 µM (inactive).
As for `Cc1ccc(OCC(=O)N(Cc2nnc(-c3ccccc3Cl)o2)C2CC2)cc1C`, the IC50 in [15] was 31.9 µM (active).
Regarding `Cc1ccc(-n2ncc3c(NNC(=O)c4ccco4)ncnc32)cc1C`, the EC50 in test [16] was 142 µM (active); in [17] it was > 300 µM (not active); in test [18], 6.81 µM (active).
As to `COc1cc(/C=C2\SC(c3ccc(C)cc3)=NC2=O)cc(OC)c1O`, the IC50 at Prothrombin is 1.37 µM (active); in test [11], 42.1 µM (active); on Large T antigen, 16.5 µM (active); in test [12], 2.18 µM (active); in test [19], 63.1 µM (inactive).
